The values below come from ChEMBL document CHEMBL3808310, “New anti-inflammatory sterols from a gorgonian Pinnigorgia sp” (2016).

Experiment [1] concerns RAW264.7. As to the kind of experiment: Antiinflammatory activity in mouse RAW264.7 cells assessed as reduction in LPS-induced iNOS protein levels at 10 uM preincubated for 10 mins followed by LPS challenge for 16 hrs by Western blot analysis. The format is functional. Details: scale not given: the % may be the effect or the level left. (Immunoblotting shows a protein as a band on a membrane.)

For experiment [2], the system named is RAW264.7. Briefly: Antiinflammatory activity in mouse RAW264.7 cells assessed as reduction in LPS-induced COX-2 protein levels at 10 uM preincubated for 10 mins followed by LPS challenge for 16 hrs by Western blot analysis. It is filed as functional. Details: scale not given: the % may be the effect or the level left.

The structures appear in SMILES notation.

Consider `CC(=O)OCC[C@]1(C)[C@@H]([C@H](C)CC[C@H](C)C(C)C)CC[C@H]1C1=C[C@H](O)[C@@]2(O)C[C@@H](O)CC[C@]2(C)C1=O`, for which the Activity in the experiment on RAW264.7 [1] was determined as 33.2%; with RAW264.7 [2], 54%.

Take `CC(C)[C@@H](C)/C=C/[C@@H](C)[C@H]1CC[C@H]2C3=C(CC[C@]12C)[C@@]1(C)CC[C@H](O)C[C@]12O[C@@H]2[C@@H]3O`: the Activity in the experiment with RAW264.7 [1] was 41.1%; in the experiment on RAW264.7 [2], 54%.

Consider `C[C@@H]1C[C@H]2[C@@H]3CCC4=CC(=O)C=C[C@]4(C)[C@@]3(F)[C@@H](O)C[C@]2(C)[C@@]1(O)C(=O)CO` [DEXAMETHASONE], for which the Activity in the experiment on RAW264.7 [1] was 9.6%; in the experiment on RAW264.7 [2], 1.7%.
